Source: ChEMBL document CHEMBL1255490, “In vitro activities of DC-159a, a novel fluoroquinolone, against Mycobacterium species” (Antimicrob Agents Chemother, 2010)
Converted amounts (≈) assume the structure as drawn.

System: Mycobacterium tuberculosis
Test: Antimycobacterial activity against quinolone-resistant multidrug-resistant Mycobacterium tuberculosis after 21 days by agar dilution method
Assay type: functional
Settings: 504 h

SMILES	MIC	MIC50	MIC90
COc1c(N2CC3(CC3)[C@](C)(N)C2)c(F)cc2c(=O)c(C(=O)O)cn([C@@H]3C[C@@H]3F)c12	0.125 mg/L (≈ 0.298 µM)	0.125 mg/L (≈ 0.298 µM)	0.5 mg/L (≈ 1.19 µM)
CO[C@H]1/C=C/O[C@@]2(C)Oc3c(C)c(O)c4c(O)c(c(/C=N/N5CCN(C)CC5)c(O)c4c3C2=O)NC(=O)/C(C)=C\C=C\[C@H](C)[C@H](O)[C@@H](C)[C@@H](O)[C@@H](C)[C@H](OC(C)=O)[C@@H]1C [RIFAMPIN]	–	128 mg/L (≈ 156 µM)	> 128 mg/L
COc1c(N2CCNC(C)C2)c(F)cc2c(=O)c(C(=O)O)cn(C3CC3)c12 (stereo unspecified) [GATIFLOXACIN]	–	1 mg/L (≈ 2.66 µM)	2 mg/L (≈ 5.33 µM)
C[C@H]1COc2c(N3CCN(C)CC3)c(F)cc3c(=O)c(C(=O)O)cn1c23.C[C@H]1COc2c(N3CCN(C)CC3)c(F)cc3c(=O)c(C(=O)O)cn1c23.O [LEVOFLOXACIN]	–	8 mg/L	16 mg/L
COc1c(N2C[C@@H]3CCCN[C@@H]3C2)c(F)cc2c(=O)c(C(=O)O)cn(C3CC3)c12 [MOXIFLOXACIN]	–	2 mg/L (≈ 4.98 µM)	4 mg/L (≈ 9.96 µM)
